Experimental data reported in patent US20080081825A1, “Nitrogen-Containing Heterocyclic Compounds and Medicinal Use Thereof” (priority 2004, published 2008).

How the values were obtained:
[1] = molecular target: recombinant human p38α MAP kinase (Homo sapiens, UniProt Q16539); assay: Study on p38α MAP kinase inhibitory activity (ATF-2 phosphorylation, Alpha Screen); assay type: biochemical; details: ATF2 substrate, ATP 90 μmol/L
Protocol: Using activation transcription factor-2 (hereinafter abbreviated as ATF-2) which is a substrate for p38α MAP kinase, the inhibitory action of the compounds of the present invention was investigated on the phosphorylation by a recombinant human p38α MAP kinase.
A kinase buffer (25 mM Tris-HCl (pH 7.5), 5 mM […], 2 mM dithiothreitol, 0.1 mM Na3VO4, 10 mM MgCl2) containing a recombinant human p38α MAP kinase was added to a 384-well plate (5 μL) (6.25 ng protein/well) for fluorescence measurement. After addition of a kinase buffer (5 μL) containing the compound of the present invention, the resulting mixture was incubated at room temperature for 20 minutes. A substrate mixture (5 μL) of biotinylated ATF2 of 5 μg/mL (Upstate Biotechnology #14-432), adenosine triphosphate (90 μmol/L) (Sigma #FL-AAS) and anti-phosphorylated ATF2 antibody (20-fold dilution) (Cell Signaling Technology #9221L) prepared separately was added thereto, and enzyme reaction was carried out at 30° C. for 30 minutes. After the reaction, Hepes buffer (5 μL) containing 0.25% BSA and 100 mM EDTA was added to stop the enzyme reaction. The amount of a complex of the phosphorylated ATF2 and anti-phosphorylated ATF2 antibody produced by the reaction was measured using an Alpha Screenm Rabbit Detection kit (Packard #6760607).
The p38α MAP kinase inhibitory activity, which is the effect of the compound of the present invention, was calculated as an inhibition rate (%) according to the following equation:
(§1) Inhibition rate (%)={(AC−AX)/(AC−AB)}×100
Inhibition rate of compounds with each concentration was calculated, and a value indicating 50% inhibition (IC50) was determined from the inhibition curve.

[2] = system: TNF-α production, THP-1 human monocyte cell line; assay: Inhibitory activity against TNF-α production using human cell lines (LPS-stimulated THP-1); assay type: cell-based; details: 1.5 h, THP-1 cells, LPS stimulation, 90 minutes
Protocol: Using THP-1 which is a human monocyte cell line, the inhibitory effect of the compound of the present invention against TNF-α production stimulated by lipopolysaccharide (LPS) was studied.
Each 50 μL of lipopolysaccharide (LPS; Difco #3120-25-0) prepared to a concentration of 40 ng/mL using RPMI-1640 medium containing 10% fetal calf serum (hereinafter abbreviated to RPMI-1640) and RPMI-1640 containing the compound of the present invention was added to a 96-well plate for cell culture. One hundred μL of the cell suspension of THP-1 (Dainippon Pharmaceutical Co., Ltd, #06-202) prepared to a cell density of 2×10^6 cells/mL using RPMI-1640 was added and cultured for 90 minutes at 37° C. in an incubator (5% CO2, 95% air). After completion of the reaction, the culture medium supernatant was recovered and the amount of produced TNF-α was measured using an ELISA kit (Invitrogen, #850090192).
The inhibitory activity against TNF-α production, which is the effect of the compound of the present invention, was calculated as an inhibition rate (%) by the following equation:
as §1
AX is a measured value with LPS induction in the presence of a test compound. Inhibition rate of compounds with each concentration was calculated, and a value indicating 50% inhibition (IC50) was determined from the inhibition curve.

[3] = system: TNF-α production induced by lipopolysaccharide (LPS); assay: Rat cytokine-production model (LPS-induced TNF-α in plasma); assay type: in vivo; details: dose of 3 mg/kg orally, LPS 10 μg/kg intravenously after 2 hours, plasma 90 minutes after LPS
Protocol: The in vivo effect of the compound of the present invention was studied on TNF-α production induced by lipopolysaccharide (LPS) in rats.
A vehicle containing the compound of the present invention was orally administered to male Lew […] (Charles River Japan, Inc.), and after 2 hours, lipopolysaccharide (LPS, 055:B5, Difco) was intravenously administered at the dose of 10 μg/kg (5 animals/group). Only a vehicle was orally administered to a control group (5 animals). Ninety minutes after the LPS treatment, heparinized blood collection was performed via the abdominal cava vein under anesthesia with ether, and blood plasma was obtained by centrifugation (12,000 rpm, 3 minutes, 4° C.). The obtained blood plasma sample was stored at −80° C. until it was used. TNF-α in the blood plasma was measured using an ELISA kit from Genzyme/Techne (#10516).
The inhibitory activity of the compound of the present invention against TNF-α production was calculated as an inhibition rate (%) according to the following equation:
Inhibition rate (%)={(AC−AX)/A^C}×100

recombinant human p38α MAP kinase, sequence (Q16539 whole entry): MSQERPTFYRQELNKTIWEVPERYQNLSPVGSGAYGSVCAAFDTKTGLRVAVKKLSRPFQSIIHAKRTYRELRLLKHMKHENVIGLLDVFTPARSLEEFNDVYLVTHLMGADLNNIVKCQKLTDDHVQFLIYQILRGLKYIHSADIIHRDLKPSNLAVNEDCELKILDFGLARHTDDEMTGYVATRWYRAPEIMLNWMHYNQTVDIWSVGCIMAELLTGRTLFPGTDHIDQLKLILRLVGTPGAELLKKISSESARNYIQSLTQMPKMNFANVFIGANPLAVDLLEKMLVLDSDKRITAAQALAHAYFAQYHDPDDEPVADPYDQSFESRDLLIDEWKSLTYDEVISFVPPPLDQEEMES

IC50 [1] | IC50 [2] | Structure (SMILES) | inhibition against in vivo TNF-α production induced by LPS stimulation [3]
4.9 nM | – | O=c1ccc(C(=NO)c2ccc(F)cc2F)cn1-c1c(Cl)cccc1Cl [Example 7, 1-(2,6-dichlorophenyl)-5-[(2,4-difluorophenyl)(hydroxyimino)methyl]pyridin-2(1H)-one] | –
34 nM | 2.4 nM | Cc1cc(F)cc(C)c1-n1cc(/C(=N/OC2CCN(C)CC2)c2ccc(F)cc2F)ccc1=O [Example 48, 5-((Z)-(2,4-difluorophenyl) {[(1-methyl-4-piperidinyl)oxy]iimino}methyl)-1-(4-fluoro-2,6-dimethylphenyl)-2(1H)-pyridinone] | 72%
20.5 nM | 7.1 nM | Cc1cc(C)c(-n2cc(C(=NOC3CCN(C)CC3)c3ccc(F)cc3F)ccc2=O)c(C)c1 [Example 52(9), 5-((2,4-difluorophenyl){[(1-methyl-4-piperidinyl)oxy]imino}methyl)-1-mesityl-2(1H)-pyridinone] | 72%
